The values that follow come from patent publication US4291036A, “Pyrido[1,2-A]pyrimidine derivatives and method of analgesic treatment” (priority 1977, dated 1981).

The structures appear in SMILES notation. Where a name gives a salt, the structure may show the parent alone. Read-outs that look alike come from different tables or passages of the source. Where only a bound is given, the exact number is not on record here.

Series [1] in a line: Toxicity (LD50; Litchfield and Wilcoxon). The following applies: in vivo. The text has this:
Toxicity: Litchfield J. T. and Wilcoxon: J. Pharmacol. Sci 54 (1965) 888.

The nature of series [2]: Hot plate test (analgesia). The format is in vivo, rats. The note with it: for ED50: Rattus norvegicus. As to the method:
(§1) The analgesic effect was tested on the hot-plate and algolytic tests.
Hot plate test: Woolfe and McDonald J. Pharm. 80, 300 (1944) modified by Porszasz and Herr: Kiserletes Orvostudomany 2, 292 (1950).
Background: Hot-plate and tail-flick tests time the reaction to a heat stimulus.

Series [3] can be described thus: Algolytic test (analgesia). The format is in vivo. The following applies: for Algolytic test ED100: p.o. As for the experimental part: as §1
Algolytic test: J. Knoll et. al: Animal and Clinical Pharmacological Techniques in Drug Evaluation Eds. Siegler, P. E. and Meyer J. II. Year Book Medical Pub. Chicago (1967) pages 305-321.

The conditions of series [4]: dog, in vivo. The source says: Beagles are much more sensitive to CNS effects than rats, Rhesus monkeys and man.
The conditions of series [5]: s.c.; Knoll et al. 1971; cited from earlier work.
The conditions of series [6]: s.c.; Knoll et al. 1971; cited from earlier work. The source holds these as a separate data set.
Series [7] can be described thus: Analgesic potency compared with Probon, rat. In kind it is in vivo.
Series [8] in a line: Analgesic potency compared with Probon, dog. The format is in vivo.
Series [9] can be described thus: Inhibition of the CNS effects of Probon. The following applies: in vivo.
For series [10] the following is noted: rat, in vivo.
Setting [11] is: po, Table IV, rats, p.o., read-out: LD50 rats p.o.
Setting [12] is: po, Table IV, rats, p.o., read-out: Hot plate test ED50 p.o.
Setting [13] is: sc, Table IV, rats, s.c., read-out: LD50 rats s.c.
[14] abbreviates: Table IV, rats, i.v., read-out: LD50 rats i.v.
Setting [15] is: iv, Table IV, rats, i.v., read-out: Hot plate test ED50 i.v.
Setting [16] is: sc, Table IV, rats, s.c., read-out: Hot plate test ED50 s.c.
Setting [17] is: Table I, route not given, read-out: LD50.
The mark [18] stands for this setting: iv, Table III, i.v., read-out: LD50 i.v.
Setting [19] is: po, Table III, p.o., read-out: LD50 p.o.
Where [20] appears, read: sc, Table III, s.c., read-out: LD50 s.c.
Where [21] appears, read: iv, Table III, i.v., read-out: ED50 hot-plate i.v.
[22] abbreviates: po, Table II, p.o., read-out: Hot plate test ED50.
The mark [23] stands for this setting: po, Table III, p.o., read-out: ED50 hot-plate p.o.
Setting [24] is: sc, Table III, s.c., read-out: ED50 hot-plate s.c.

What is called LD50 is the dose at which mortality reaches 50%. Broadly, the ED50 is the dose at which the effect has come halfway, by size or by number of responders. For `CCc1c(C)nc2c(C)cccn2c1=O.Cl` [2,9-dimethyl-3-ethyl-4-oxo-4H-pyrido[1,2-a]pyrimidine HCl], in series [1] (setting [11]), the LD50 is 820 mg/kg. In series [2] (setting [12]), the ED50 was determined as 310 mg/kg.
`CCc1c(C)nc2ccc(C)cn2c1=O` [2,7-dimethyl-3-ethyl-4-oxo-4H-pyrido[1,2-a]pyrimidine . HCl]: the figures for the LD50 in [1] (setting [11]), in [1] (setting [13]) and in [1] (setting [14]) were 900 mg/kg, 800 mg/kg and 175 mg/kg, respectively. Besides, the figures for the ED50 in [2] (setting [15]), in series [2] (setting [12]) and in series [2] (setting [16]) were 75 mg/kg, 500 mg/kg and 150 mg/kg, respectively.
On to `CCCc1c(C)nc2ccccn2c1=O.Cl` [2-methyl-3-n-propyl-4-oxo-4H-pyrido[1,2-a]pyrimidine hydrochloride], for which the LD50 in series [1] (setting [17]) came to 502 µmol/kg.
As to `CCc1c(C)nc2cc(C)cc(C)n2c1=O` [Compound C, 2,6,8-trimethyl-3-ethyl-4-oxo-4H-pyrido[1,2-a]pyrimidine.HCl], the LD50 in series [1] (setting [18]) came out at 120 mg/kg; in series [1] (setting [19]) it was 1500 mg/kg; in series [1] (setting [20]), 820 mg/kg. Also, the ED50 in [2] (setting [21]) was 49 mg/kg; in series [2] (setting [15]) it was 49 mg/kg; in series [2] (setting [22]) it was 580 mg/kg; in series [2] (setting [23]), 580 mg/kg; in series [2] (setting [12]) it was 580 mg/kg; in series [2] (setting [24]) it was 120 mg/kg. In [2] (setting [16]), the ED50 is 120 mg/kg. Further, the “Algolytic test ED100” value in series [3] (Table II) is listed as “cannot be achieved”.
With `CCc1nc2cccc(C)n2c(=O)c1C.Cl` [3,6-dimethyl-2-ethyl-4-oxo-4H-pyrido[1,2-a]pyrimidine hydrochloride], the LD50 in series [1] (setting [17]) was found to be 120 µmol/kg.
For the molecule `CCCc1c(C)nc2cccc(C)n2c1=O.Cl` [2,6-dimethyl-3-n-propyl-4-oxo-4H-pyrido[1,2-a]pyrimidine hydrochloride], the values for the LD50 in series [1] (setting [11]), in series [1] (setting [13]) and in series [1] (setting [17]) were 1000 mg/kg, 1200 mg/kg and 316 µmol/kg, respectively. Moreover, the ED50 in [2] (setting [16]) was found to be 48 mg/kg.
For `CCc1c(C)nc2ccc(Cl)cn2c1=O.Cl` [2-methyl-3-ethyl-7-chloro-4-oxo-4H-pyrido[1,2-a]pyrimidine hydrochloride], the LD50 in series [1] (setting [11]) stood at 1100 mg/kg. Also, the ED50 in series [2] (setting [12]) came to 98 mg/kg.
Regarding `Cc1nc2cccc(C)n2c(=O)c1C.Cl` [2,3,6-trimethyl-4-oxo-4H-pyrido[1,2-a]pyrimidine hydrochloride], the results for the LD50 in [1] (setting [17]) and in series [1] (setting [14]) were 780 µmol/kg and 175 mg/kg, respectively. Further, in series [2] (setting [12]), the ED50 turned out to be 87 mg/kg.
With `CCCCc1c(C)nc2ccccn2c1=O` [2-methyl-3-n-butyl-4-oxo-4H-pyrido[1,2-a]pyrimidine . HCl], the LD50 in [1] (setting [11]) is 1100 mg/kg. Further, in [2] (setting [12]), the ED50 was 251 mg/kg.
Consider `CCCCc1c(C)nc2cccc(C)n2c1=O.Cl` [2,6-dimethyl-3-n-butyl-4-oxo-4H-pyrido[1,2-a]pyrimidine hydrochloride], for which the LD50 in [1] (setting [11]) came out at 1100 mg/kg. The ED50 in [2] (setting [12]) was 340 mg/kg.
As for `CCc1c(C)nc2cccc(C)n2c1=O.Cl` [Compound A, 2,6-dimethyl-3-ethyl-4-oxo-4H-pyrido[1,2-a]pyrimidine hydrochloride], the LD50 was 190 mg/kg in series [1] (setting [18]), 690 mg/kg in [1] (setting [19]), 520 mg/kg in series [1] (setting [20]) and 796 µmol/kg in [1] (setting [17]). Further, the ED50 in series [2] (setting [22]) worked out at 68 mg/kg; in [2] (setting [23]) it was 68 mg/kg; in series [2] (setting [12]) it was 68 mg/kg; in [2] (setting [24]), 74 mg/kg; in series [2] (setting [16]), 74 mg/kg; in series [3] (sc), 98 mg/kg. Also, the ED50 hot-plate p.o. in series [2] (Table III, p.o., hydrochloride) is 58 mg/kg. Also, the “algolytic (+5mg./kg morphine), result in words” value in series [3] (Table III) is “effective per se”. Also, the “ED50 algolytic (+5mg./kg morphine)” value in series [3] (Table III, s.c.) amounted to 8.6 mg/kg. In series [3] (po, Table II), this molecule came in with an ED100 of 420 mg/kg.
In the case of `CCOC(=O)c1c[n+](C)c2n(c1=O)C(C)CCC2` (stereo not shown) [Probon, 1,6-dimethyl-3-ethoxycarbonyl-4-oxo-4H-6,7,8,9-tetrahydro-pyrido[1,2-a]pyrimidinium-methosulfate, reference compound], the LD50 stood at 220 mg/kg in series [1] (iv, read-out: LD50 rats i.v.); 1600 mg/kg in series [1] (po, read-out: LD50 rats p.o.); 607 µmol/kg in [1] (read-out: LD50). The ED50 in [2] (setting [15]) was determined as 50 mg/kg; in series [2] (setting [12]) it was 220 mg/kg. In addition, the “dose causing death of the animal” value in series [4] (po) stood at 300 mg/kg. In [4] (po), the “oral dose at which disturbances of coordination and behavior, ataxia appear” value is reported as “above 100 mg./kg. body weight”. Besides, in [4] (po), the “oral dose level at which CNS symptoms are very marked” value lay within 150 to 200 mg/kg. Moreover, the “dose causing inhibition of the conditioned reflex” value in series [5] was ≥ 250 mg/kg. For the same molecule, the “dose eliciting characteristic desynchronization of the EEG” value in series [6] is ≥ 250 mg/kg.
As for `CCc1c(C)nc2cccc(C)n2c1=O` [2,6-dimethyl-3-ethyl-4-oxo-4H-pyrido[1,2-a]pyrimidine], the CNS symptoms result in [4] and in series [10] was “failing to elicit the CNS symptoms” in each case. In addition, the “analgesic potency compared with Probon” value in [7] and in [8] was “more potent analgesic than Probon” in each case. Moreover, the “inhibition of the CNS effects of Probon” value in [9] is given as “strongly inhibit the CNS effects of Probon”.
On to `CCc1c(C)nc2ccccn2c1=O` [Compound B, 2-methyl-3-ethyl-4-oxo-4H-pyrido[1,2-a]pyrimidine.HCl], for which the LD50 is 280 mg/kg in [1] (setting [18]), 1000 mg/kg in [1] (setting [19]), 620 mg/kg in series [1] (setting [20]) and 1070 µmol/kg in [1] (setting [17]). Also, the ED50 in [2] (setting [21]) came out at 100 mg/kg; in [2] (setting [15]), 100 mg/kg; in [2] (setting [22]) it was 330 mg/kg; in [2] (setting [23]), 300 mg/kg; in series [2] (setting [12]) it was 300 mg/kg; in series [2] (setting [24]), 180 mg/kg. Besides, the ED50 in series [2] (setting [16]) was 180 mg/kg. For the same molecule, the “Algolytic test ED100” value in series [3] (Table II) is reported as “cannot be achieved”. The “ED50 algolytic (+5mg./kg morphine)” value in series [3] (Table III, i.v.) was 2.75 mg/kg.
